Measurements as given in ChEMBL document CHEMBL4831528, “Discovery of Novel Pterostilbene-Based Derivatives as Potent and Orally Active NLRP3 Inflammasome Inhibitors with Inflammatory Activity for Colitis” (J Med Chem, 2021).
Active and inactive are the calls of the source. No cut-off for these calls is given here.

Key:
[1] = target: NACHT, LRR and PYD domains-containing protein 3 (Mus musculus) (UniProt Q8R4B8); assay: Inhibition of NLRP3 inflammasome activation in LPS-stimulated mouse bone marrow-derived macrophages assessed as reduction in cell pyrolysis at 5 to 25 uM preincubated for 30 mins followed by nigericin addition and measured after 30 mins by Western blot analysis; assay type: tissue-based; conditions: Macrophage, dose 5-25 µM, time 60.0 min
[2] = test system: L02; assay: Cytotoxicity against human L-02 cells incubated for 24 hrs by MTT assay; assay type: cell-based; conditions: L02, 24 h
[3] = Hepatic clearance in human liver microsomes preincubated for 5 mins followed by NADPH addition and measured after 5 to 60 mins by LC-MS/MS analysis; assay type: ADME, Microsome; conditions: time 5-60 min
[4] = test system: Mus musculus; assay: Downregulation of COX2 expression in colon of C57BL/6 mouse model of DSS-induced ulcerative colitis at 10 to 20 mg/kg, ig administered for 7 days by Western blot analysis; assay type: functional, organism-based; conditions: dose 10-20 mg/kg, time 7.0 day
[5] = Toxicity in C57BL/6 mouse assessed as effect on kidney at 20 to 40 mg/kg, ig administered for 28 days; assay type: organism-based; conditions: in vivo, po, 672 h, dose 20-40 mg/kg, time 28 day
[6] = Clearance in mouse at 20 mg/kg, po measured up to 24 hrs by LC-MS/MS analysis; assay type: ADME, organism-based; conditions: in vivo
[7] = Half life in mouse liver microsomes preincubated for 5 mins followed by NADPH addition and measured after 5 to 60 mins by LC-MS/MS analysis; assay type: ADME, Microsome; conditions: time 5-60 min
[8] = target: NACHT, LRR and PYD domains-containing protein 3 (Mus musculus) (UniProt Q8R4B8); assay: Inhibition of NLRP3 inflammasome activation in LPS-stimulated mouse bone marrow-derived macrophages assessed as reduction in caspase1 secretion at 1 to 4 uM preincubated for 30 mins followed by nigericin addition and measured after 0.5 hrs by Western blot analysis; assay type: tissue-based; conditions: Macrophage, dose 1-4 µM
[9] = Toxicity in C57BL/6 mouse assessed as loose fur at 20 to 40 mg/kg, ig administered for 28 days; assay type: organism-based; conditions: in vivo, po, 672 h, dose 20-40 mg/kg, time 28 day
[10] = Toxicity in C57BL/6 mouse assessed as weight loss at 20 to 40 mg/kg, ig administered for 28 days; assay type: organism-based; conditions: in vivo, po, 672 h, dose 20-40 mg/kg, time 28 day
[11] = target: NACHT, LRR and PYD domains-containing protein 3 (Mus musculus) (UniProt Q8R4B8); assay: Binding affinity to NLRP3 in mouse J774A1 cells assessed as thermal stabilization at 50 uM incubated for 30 mins by cellular thermal shift assay; assay type: cell-based; conditions: J774.A1
[12] = AUC (0 to infinity) in mouse at 2 mg/kg, iv measured after 0.08 to 24 hrs by LC-MS/MS analysis; assay type: ADME, organism-based; set-up: route intravenous, time upper 24 hrs, dose 2 mg/kg, time lower 0.08 hrs; conditions: in vivo
[13] = Toxicity in C57BL/6 mouse assessed as weight gain at 20 to 40 mg/kg, ig administered for 28 days; assay type: organism-based; conditions: in vivo, po, 672 h, dose 20-40 mg/kg, time 28 day
[14] = test system: Mus musculus; assay: Anti-inflammatory activity in C57BL/6 mouse DSS-induced acute ulcerative colitis assessed as reduction in disease index at 10 to 20 mg/kg, ig administered for 7 days; assay type: functional, organism-based; conditions: dose 10-20 mg/kg, time 7.0 day
[15] = target: NACHT, LRR and PYD domains-containing protein 3 (Mus musculus) (UniProt Q8R4B8); assay: Inhibition of NLRP3 inflammasome activation in LPS-stimulated mouse bone marrow-derived macrophages assessed as reduction in pro caspase1 in cell lysate at 2 uM preincubated for 30 mins followed by MSU addition and measured after 0.5 hrs by Western blot analysis; assay type: subcellular; conditions: Macrophage, time 60.0 min
[16] = target: NACHT, LRR and PYD domains-containing protein 3 (Mus musculus) (UniProt Q8R4B8); assay: Inhibition of NLRP3 inflammasome activation in LPS-stimulated mouse bone marrow-derived macrophages assessed as reduction in pro caspase1 secretion in cell lysate at 2 uM preincubated for 30 mins followed by nigericin addition and measured after 0.5 hrs by Western blot analysis; assay type: subcellular; conditions: Macrophage, time 60.0 min
[17] = target: NACHT, LRR and PYD domains-containing protein 3 (Homo sapiens, UniProt Q96P20); assay: Binding affinity to His-GFP fused tagged NLRP3 (unknown origin) expressed in HEK293T assessed as thermal stabilization at 10 uM incubated for 30 mins by cellular thermal shift assay; assay type: cell-based
[18] = target: NACHT, LRR and PYD domains-containing protein 3 (Mus musculus) (UniProt Q8R4B8); assay: Inhibition of NLRP3 inflammasome activation in LPS-stimulated mouse bone marrow-derived macrophages assessed as reduction in IL-1beta secretion at 2 uM preincubated for 30 mins followed by MSU addition and measured after 0.5 hrs by ELISA; assay type: tissue-based; conditions: Macrophage, time 60.0 min
[19] = test system: Macrophage; assay: Inhibition of NFkappaB activation in LPS-stimulated mouse bone marrow-derived macrophages assessed as reduction in TNFalpha secretion at 0.5 to 2 uM preincubated for 30 mins followed by nigericin addition and measured after 30 mins by ELISA; assay type: tissue-based; conditions: dose 0.5-2 µM, time 60.0 min
[20] = target: NACHT, LRR and PYD domains-containing protein 3 (Mus musculus) (UniProt Q8R4B8); assay: Inhibition of NLRP3 inflammasome activation in LPS-stimulated mouse bone marrow-derived macrophages assessed as attenuation of ASC dimer at 1 to 4 uM preincubated for 30 mins followed by nigericin addition and measured after 0.5 hrs by Western blot analysis; assay type: tissue-based; conditions: Macrophage, dose 1-4 µM
[21] = Inhibition of ROS production in LPS-stimulated mouse bone marrow-derived macrophages at 1 to 4 uM preincubated for 30 mins followed by nigericin addition and measured after 0.5 hrs by Western blot analysis; conditions: Macrophage, dose 1-4 µM, time 60.0 min
[22] = Half life in human liver microsomes preincubated for 5 mins followed by NADPH addition and measured after 5 to 60 mins by LC-MS/MS analysis; assay type: ADME, Microsome
[23] = target: T1, Interferon-inducible protein AIM2 (Mus musculus) (UniProt Q91VJ1); assay: Inhibition of AIM2 inflammasome activation in LPS-stimulated mouse bone marrow-derived macrophages assessed as reduction in IL-1beta secretion at 2 uM preincubated for 30 mins followed by poly-(dA:dT) addition and measured after 4 hrs by ELISA; assay type: tissue-based; conditions: Macrophage, time 4.5 hrs
T1 sequence (whole entry): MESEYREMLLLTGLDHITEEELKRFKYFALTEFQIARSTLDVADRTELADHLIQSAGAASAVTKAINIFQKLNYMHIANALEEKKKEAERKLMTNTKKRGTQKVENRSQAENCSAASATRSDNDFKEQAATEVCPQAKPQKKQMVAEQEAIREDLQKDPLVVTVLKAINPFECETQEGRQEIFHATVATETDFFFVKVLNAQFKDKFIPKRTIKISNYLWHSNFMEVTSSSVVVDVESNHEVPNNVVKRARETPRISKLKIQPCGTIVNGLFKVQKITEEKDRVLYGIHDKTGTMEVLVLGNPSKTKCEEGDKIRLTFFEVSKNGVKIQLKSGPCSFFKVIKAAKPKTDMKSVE

[24] = Hepatic clearance in mouse liver microsomes preincubated for 5 mins followed by NADPH addition and measured after 5 to 60 mins by LC-MS/MS analysis; assay type: ADME, Microsome; conditions: time 5-60 min
[25] = target: NACHT, LRR and PYD domains-containing protein 3 (Mus musculus) (UniProt Q8R4B8); assay: Inhibition of NLRP3 inflammasome activation in LPS-stimulated mouse bone marrow-derived macrophages assessed as reduction in pro IL-1beta secretion in cell lysate at 2 uM preincubated for 30 mins followed by ATP addition and measured after 0.5 hrs by Western blot analysis; assay type: subcellular; conditions: Macrophage, time 60.0 min
[26] = test system: Mus musculus; assay: Protection against DSS-induced acute ulcerative colitis in C57BL/6 mouse assessed as reduction in adhesion of colon at 10 to 20 mg/kg, ig administered for 7 days; assay type: functional, organism-based; conditions: dose 10-20 mg/kg, time 7.0 day
[27] = target: NACHT, LRR and PYD domains-containing protein 3 (Mus musculus) (UniProt Q8R4B8); assay: Inhibition of NLRP3 inflammasome activation in LPS-stimulated mouse bone marrow-derived macrophages assessed as reduction in pro caspase1 p20 in cell lysate at 2 uM preincubated for 30 mins followed by ATP addition and measured after 0.5 hrs by Western blot analysis; assay type: subcellular; conditions: Macrophage, time 60.0 min

Sequence of NACHT, LRR and PYD domains-containing protein 3 (Mus musculus) (Q8R4B8 whole entry, the tested form may be a part): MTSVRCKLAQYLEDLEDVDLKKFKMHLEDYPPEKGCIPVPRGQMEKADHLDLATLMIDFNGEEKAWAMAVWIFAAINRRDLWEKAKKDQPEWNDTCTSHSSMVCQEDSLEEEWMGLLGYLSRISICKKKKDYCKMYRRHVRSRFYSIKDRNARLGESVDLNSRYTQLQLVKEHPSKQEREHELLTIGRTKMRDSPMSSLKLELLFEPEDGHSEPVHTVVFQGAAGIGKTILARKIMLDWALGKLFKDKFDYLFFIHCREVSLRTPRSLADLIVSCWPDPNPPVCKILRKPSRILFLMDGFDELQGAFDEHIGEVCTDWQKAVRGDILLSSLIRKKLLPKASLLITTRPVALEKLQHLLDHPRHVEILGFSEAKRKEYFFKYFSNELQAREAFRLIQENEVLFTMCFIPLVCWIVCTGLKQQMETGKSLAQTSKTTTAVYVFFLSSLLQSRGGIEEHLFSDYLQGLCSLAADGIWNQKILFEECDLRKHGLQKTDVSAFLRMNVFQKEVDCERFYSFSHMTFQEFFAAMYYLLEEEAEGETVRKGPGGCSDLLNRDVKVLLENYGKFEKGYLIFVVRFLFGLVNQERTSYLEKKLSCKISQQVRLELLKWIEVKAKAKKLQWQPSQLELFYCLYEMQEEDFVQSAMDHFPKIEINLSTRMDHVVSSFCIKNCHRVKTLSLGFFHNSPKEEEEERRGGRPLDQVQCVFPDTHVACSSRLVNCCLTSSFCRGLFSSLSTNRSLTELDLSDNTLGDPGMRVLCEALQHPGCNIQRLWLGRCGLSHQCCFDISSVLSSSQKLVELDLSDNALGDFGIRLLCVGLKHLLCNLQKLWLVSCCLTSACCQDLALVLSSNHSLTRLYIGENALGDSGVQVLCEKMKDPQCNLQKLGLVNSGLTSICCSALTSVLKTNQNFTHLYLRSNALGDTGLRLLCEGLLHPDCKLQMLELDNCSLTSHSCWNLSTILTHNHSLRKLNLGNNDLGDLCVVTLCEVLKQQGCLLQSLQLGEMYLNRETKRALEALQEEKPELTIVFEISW
Sequence of NACHT, LRR and PYD domains-containing protein 3 (Q96P20 whole entry, the tested form may be a part): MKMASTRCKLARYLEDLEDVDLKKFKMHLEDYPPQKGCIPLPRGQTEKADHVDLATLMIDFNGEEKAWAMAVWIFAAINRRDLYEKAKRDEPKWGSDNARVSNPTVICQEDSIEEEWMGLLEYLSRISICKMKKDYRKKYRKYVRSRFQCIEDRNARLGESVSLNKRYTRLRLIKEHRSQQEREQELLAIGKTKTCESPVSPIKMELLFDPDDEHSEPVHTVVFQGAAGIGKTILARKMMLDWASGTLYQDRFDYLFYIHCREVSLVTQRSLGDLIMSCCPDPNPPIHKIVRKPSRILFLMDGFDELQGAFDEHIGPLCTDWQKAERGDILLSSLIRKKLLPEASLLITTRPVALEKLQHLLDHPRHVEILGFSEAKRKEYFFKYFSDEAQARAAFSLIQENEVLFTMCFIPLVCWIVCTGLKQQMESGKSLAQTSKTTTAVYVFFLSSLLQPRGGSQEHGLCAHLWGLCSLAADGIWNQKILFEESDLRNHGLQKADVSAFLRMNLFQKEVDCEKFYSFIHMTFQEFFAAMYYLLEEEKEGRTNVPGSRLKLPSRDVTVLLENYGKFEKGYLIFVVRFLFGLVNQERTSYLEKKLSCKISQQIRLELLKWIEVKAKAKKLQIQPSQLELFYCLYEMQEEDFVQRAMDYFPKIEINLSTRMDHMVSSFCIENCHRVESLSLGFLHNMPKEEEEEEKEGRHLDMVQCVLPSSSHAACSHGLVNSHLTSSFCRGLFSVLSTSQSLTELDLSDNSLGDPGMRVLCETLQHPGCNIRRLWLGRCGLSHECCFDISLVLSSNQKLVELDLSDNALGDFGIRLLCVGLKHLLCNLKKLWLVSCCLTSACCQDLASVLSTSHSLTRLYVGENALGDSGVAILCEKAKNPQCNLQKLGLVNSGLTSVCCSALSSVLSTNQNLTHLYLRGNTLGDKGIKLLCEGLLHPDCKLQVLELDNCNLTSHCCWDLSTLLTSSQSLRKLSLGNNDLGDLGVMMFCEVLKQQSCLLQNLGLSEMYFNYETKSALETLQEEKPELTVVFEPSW

In the case of `COc1cc(/C=C/c2ccc(NC(=O)C3CC3)cc2)c(/C=C/[N+](=O)[O-])c(OC)c1`, the inhibition [1] is reported as “Active”, the IC50 [2] is reported as greater than 100 µM and the CLhep predicted [3] is reported as 11 mL/min/kg. The Activity [4] was “Active”, the Activity [5] was “Non-Toxic” and the CL [6] was 152 mL/min/kg. The half-life [7] was 43.3 min, the inhibition [8] was “Active” and the Activity [9] was “Non-Toxic”. For the same molecule, the Activity [10] was “Non-Toxic”, the Activity [11] was “Active” and the AUC(0-inf) [12] was 583 ng·h/mL. The Activity [13] was “Non-Toxic”, the Activity [14] was “Active” and the inhibition [15] was “Active”. For the same molecule, the inhibition [16] was “Active”, the Activity [17] was “Active” and the inhibition [18] was “Active”. For the same molecule, the inhibition [19] was “inactive”, the inhibition [20] was “Active” and the inhibition [21] was “inactive”. The half-life [22] was 68.1 min, the inhibition [23] was “inactive” and the CLhep predicted [24] was 52.5 mL/min/kg. The inhibition [25] was “Active”, the Activity [26] was “Active” and the inhibition [27] was “Active”.
